US11795171B2, “Pyrrolotriazinones and imidazotriazinones as ubiquitin-specific protease 7 inhibitors” (Valo Health, Inc., priority 2014, dated 2023)

Target: USP7 (Homo sapiens (Human), UniProt Q93009)
Test: USP7 Assay B (Ubitquin-Rhodamine110 Assay)
Type: biochemical
Conditions: Ub-Rh110 substrate 25 nM
Method: Stock compound solutions were stored at −20° C. as 10 mM in DMSO. […] Prestamped assay plates were allowed to come to room temperature on the day of the assay. For the screen, 100 nL of 2 mM was pre-dispensed for a final screening concentration of 10 μM (DMSO(fc)=0.5%). […] Unless otherwise indicated, all follow-up assays were run on triplecate plates. […] Pre-stamped with compounds were either not preincubated or preincubated with USP7 between 30 to 120 minutes prior to the addition of 10 μL of 2×Ub-Rh110 to compound plates. Plates were incubated stacked for either 23 or 45 minutes at room temperature before fluorescence was read on the Envision (Excitation at 485 nm and Emission at 535 nm; Perkin Elmer) or on the PheraSTAR (Excitation at 485 nm and Emission at 535 nm; BMG Labtech).
Data from USP7 Assays A and B were reported as percent inhibition (inh) compared with control wells based on the following equation: % inh=1−((FLU−AveLow)/(AveHigh−AveLow)) where FLU=measured Fluorescence (See Tables 2 and 3). AveLow=average Fluorescence of no enzyme control (n=16). AveHigh=average Fluorescence of DMSO control (n=16). IC50 values were determined by curve fitting of the standard 4 parameter logistic fitting algorithm included in the Activity Base software package: IDBS XE Designer Model205. Data is fitted using the Levenburg Marquardt algorithm.

Sequence of USP7 (Q93009 208-1102): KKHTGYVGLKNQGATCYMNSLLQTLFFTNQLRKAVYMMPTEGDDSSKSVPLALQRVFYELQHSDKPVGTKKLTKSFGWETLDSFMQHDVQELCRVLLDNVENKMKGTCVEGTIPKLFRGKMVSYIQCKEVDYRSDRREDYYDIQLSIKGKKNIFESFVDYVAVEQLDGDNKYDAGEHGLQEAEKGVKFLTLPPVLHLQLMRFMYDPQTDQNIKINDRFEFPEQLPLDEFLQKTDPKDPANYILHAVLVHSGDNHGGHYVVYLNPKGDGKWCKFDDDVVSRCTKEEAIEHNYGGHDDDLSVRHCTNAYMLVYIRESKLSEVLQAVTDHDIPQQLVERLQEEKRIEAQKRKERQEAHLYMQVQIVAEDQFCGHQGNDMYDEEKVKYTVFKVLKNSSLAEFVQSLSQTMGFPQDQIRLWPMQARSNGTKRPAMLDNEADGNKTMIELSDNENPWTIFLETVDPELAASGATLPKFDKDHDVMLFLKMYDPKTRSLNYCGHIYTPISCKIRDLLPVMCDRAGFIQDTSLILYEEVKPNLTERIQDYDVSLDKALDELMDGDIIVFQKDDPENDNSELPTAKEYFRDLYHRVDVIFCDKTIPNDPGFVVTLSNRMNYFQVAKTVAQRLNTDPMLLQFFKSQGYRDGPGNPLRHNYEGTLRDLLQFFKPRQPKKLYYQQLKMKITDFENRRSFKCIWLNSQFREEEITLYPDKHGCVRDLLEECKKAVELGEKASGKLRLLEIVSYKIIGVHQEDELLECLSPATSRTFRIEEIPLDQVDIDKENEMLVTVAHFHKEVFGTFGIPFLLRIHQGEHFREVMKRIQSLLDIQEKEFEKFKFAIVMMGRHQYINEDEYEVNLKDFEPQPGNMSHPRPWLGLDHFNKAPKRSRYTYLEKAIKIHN

| SMILES | IC50 [µM] |
| --- | --- |
| CCNC(=O)c1ccc(-c2ccc(C(=O)N3CCC(O)(Cn4cnn5cccc5c4=O)CC3)cc2)cc1 [Compound I-41, N-ethyl-4′-(4-hydroxy-4-((4-oxopyrrolo[2,1-f][1,2,4]triazin-3(4H)-yl)methyl)piperidine-1-carbonyl)-[1,1′-biphenyl]-4-carboxamide] | > 10 |
| O=C(c1ccc(-c2ccccc2)cc1Cl)N1CCC(O)(Cn2cnn3cccc3c2=O)CC1 [Compound I-50, 3-((1-(3-chloro-[1,1′-biphenyl]-4-carbonyl)-4-hydroxypiperidin-4-yl)methyl)pyrrolo[2,1-f][1,2,4]triazin-4(3H)-one] | > 10 |
| O=C(c1ccccc1-c1ccsc1)N1CCC(O)(Cn2cnn3cccc3c2=O)CC1 [Compound I-3, 3-((4-hydroxy-1-(2-(thiophen-3-yl)benzoyl)piperidin-4-yl)methyl)pyrrolo[2,1-f][1,2,4]triazin-4(3H)-one] | > 10 |
| O=C(c1ccc(-c2ccc3ocnc3c2)cc1)N1CCC(O)(Cn2cnn3cccc3c2=O)CC1 [Compound I-47, 3-((1-(4-(benzo[d]oxazol-5-yl)benzoyl)-4-hydroxypiperidin-4-yl)methyl)pyrrolo[2,1-f][1,2,4]triazin-4(3H)-one] | > 10 |
| O=C(c1cccc(-c2cccs2)c1)N1CCC(O)(Cn2cnn3cccc3c2=O)CC1 [Compound I-27, 3-((4-hydroxy-1-(3-(thiophen-2-yl)benzoyl)piperidin-4-yl)methyl)pyrrolo[2,1-f][1,2,4]triazin-4(3H)-one] | > 10 |
| O=C(c1cnc(-c2ccccc2)o1)N1CCC(O)(Cn2cnn3cccc3c2=O)CC1 [Compound I-32, 3-((4-hydroxy-1-(2-phenyloxazole-5-carbonyl)piperidin-4-yl)methyl)pyrrolo[2,1-f][1,2,4]triazin-4(3H)-one] | > 10 |
| CC(C)(C#N)c1ccc(C(=O)N2CCC(O)(Cn3cnn4cccc4c3=O)CC2)cc1 [Compound I-31, 2-(4-(4-hydroxy-4-((4-oxopyrrolo[2,1-f][1,2,4]triazin-3(4H)-yl)methyl)piperidine-1-carbonyl)phenyl)-2-methylpropanenitrile] | > 10 |
| CC(C)(c1ccccc1)c1ccc(C(=O)N2CCC(O)(Cn3cnn4cccc4c3=O)CC2)cc1 [Compound I-55, 3-((4-hydroxy-1-(4-(2-phenylpropan-2-yl)benzoyl)piperidin-4-yl)methyl)pyrrolo[2,1-f][1,2,4]triazin-4(3H)-one] | 1 to 10 |
| O=C(c1ccc(CN2CCCCC2)cc1Cl)N1CCC(O)(Cn2cnn3cccc3c2=O)CC1 [Compound I-75, 3-((1-(2-chloro-4-(piperidin-1-ylmethyl)benzoyl)-4-hydroxypiperidin-4-yl)methyl)pyrrolo[2,1-f][1,2,4]triazin-4(3H)-one] | > 10 |
| Cc1ccccc1-c1cccc(C(=O)N2CCC(O)(Cn3cnn4cccc4c3=O)CC2)c1 [Compound I-6, 3-((4-hydroxy-1-(2′-methyl-[1,1′-biphenyl]-3-carbonyl)piperidin-4-yl)methyl)pyrrolo[2,1-f][1,2,4]triazin-4(3H)-one] | 1 to 10 |
| COc1cc(OC)cc(-c2ccc(C(=O)N3CCC(O)(Cn4cnn5cccc5c4=O)CC3)cc2)c1 [Compound I-44, 3-((1-(3′,5′-dimethoxy-[1,1′-biphenyl]-4-carbonyl)-4-hydroxypiperidin-4-yl)methyl)pyrrolo[2,1-f][1,2,4]triazin-4(3H)-one] | > 10 |
| CC(=O)Nc1cc2c(=O)n(CC3(O)CCN(C(=O)C[C@@H](C)c4ccccc4)CC3)cnn2c1 [Compound I-81, (R)-N-(3-((4-hydroxy-1-(3-phenylbutanoyl)piperidin-4-yl)methyl)-4-oxo-3,4-dihydropyrrolo[2,1-f][1,2,4]triazin-6-yl)acetamide] | 0.2 to 1 |
| N#Cc1ccc(N2CCN(C(=O)N3CCC(O)(Cn4cnn5cccc5c4=O)CC3)CC2)cc1 [Compound I-73, 4-(4-(4-hydroxy-4-((4-oxopyrrolo[2,1-f][1,2,4]triazin-3(4H)-yl)methyl)piperidine-1-carbonyl)piperazin-1-yl)benzonitrile] | > 10 |
| O=C(COc1ccc(OC(F)(F)F)cc1)Nc1cc2c(=O)n(CC3(O)CCN(C(=O)C4CC4)CC3)cnn2c1 [Compound I-104, N-(3-((1-(cyclopropanecarbonyl)-4-hydroxypiperidin-4-yl)methyl)-4-oxo-3,4-dihydropyrrolo[2,1-f][1,2,4]triazin-6-yl)-2-(4-(trifluoromethoxy)phenoxy)acetamide] | > 10 |
| N#Cc1ccc(-c2cccc(C(=O)N3CCC(O)(Cn4cnn5cccc5c4=O)CC3)c2)cc1 [Compound I-19, 3′-(4-hydroxy-4-((4-oxopyrrolo[2,1-f][1,2,4]triazin-3(4H)-yl)methyl)piperidine-1-carbonyl)-[1,1′-biphenyl]-4-carbonitrile] | > 10 |
| N#Cc1ccccc1-c1cccc(C(=O)N2CCC(O)(Cn3cnn4cccc4c3=O)CC2)c1 [Compound I-18, 3′-(4-hydroxy-4-((4-oxopyrrolo[2,1-f][1,2,4]triazin-3(4H)-yl)methyl)piperidine-1-carbonyl)-[1,1′-biphenyl]-2-carbonitrile] | > 10 |
| CC(C)c1ccc(-c2cccc(C(=O)N3CCC(O)(Cn4cnn5cccc5c4=O)CC3)c2)cc1 [Compound I-14, 3-((4-hydroxy-1-(4′-isopropyl-[1,1′-biphenyl]-3-carbonyl)piperidin-4-yl)methyl)pyrrolo[2,1-f][1,2,4]triazin-4(3H)-one] | > 10 |
| COc1ccc(OC)c(-c2ccc(C(=O)N3CCC(O)(Cn4cnn5cccc5c4=O)CC3)cc2)c1 [Compound I-40, 3-((1-(2′,5′-dimethoxy-[1,1′-biphenyl]-4-carbonyl)-4-hydroxypiperidin-4-yl)methyl)pyrrolo[2,1-f][1,2,4]triazin-4(3H)-one] | > 10 |
| Cc1cc2c(=O)n(CC3(O)CCN(C(=O)C(C)Cc4ccccc4)CC3)cnn2c1 (centres unmarked) [Compound I-84, 3-((4-hydroxy-1-(2-methyl-3-phenylpropanoyl)piperidin-4-yl)methyl)-6-methylpyrrolo[2,1-f][1,2,4]triazin-4(3H)-one] | 1 to 10 |
| O=C(c1cccc(-c2ccccc2)c1)N1CCC(O)(Cn2cnn3cccc3c2=O)CC1 [Compound I-11, 3-((1-([1,1′-biphenyl]-3-carbonyl)-4-hydroxypiperidin-4-yl)methyl)pyrrolo[2,1-f][1,2,4]triazin-4(3H)-one] | 1 to 10 |
| O=C(c1ccc(S(=O)(=O)c2ccccc2)cc1)N1CCC(O)(Cn2cnn3cccc3c2=O)CC1 [Compound I-61, 3-((4-hydroxy-1-(4-(phenylsulfonyl)benzoyl)piperidin-4-yl)methyl)pyrrolo[2,1-f][1,2,4]triazin-4(3H)-one] | 1 to 10 |
| O=C(c1ccc(-c2ccc(C(=O)N3CCC(O)(Cn4cnn5cccc5c4=O)CC3)c(Cl)c2)cc1)N1CCCC1 [Compound I-51, 3-((1-(3-chloro-4′-(pyrrolidine-1-carbonyl)-[1,1′-biphenyl]-4-carbonyl)-4-hydroxypiperidin-4-yl)methyl)pyrrolo[2,1-f][1,2,4]triazin-4(3H)-one] | 1 to 10 |
| O=C(Nc1cc(F)cc(F)c1)Nc1cc2c(=O)n(CC3(O)CCN(C(=O)C4CC4)CC3)cnn2c1 [Compound I-93, 1-(3-((1-(cyclopropanecarbonyl)-4-hydroxypiperidin-4-yl)methyl)-4-oxo-3,4-dihydropyrrolo[2,1-f][1,2,4]triazin-6-yl)-3-(3,5-difluorophenyl)urea] | > 10 |
| O=C(COc1ccc(Cl)c(Cl)c1)Nc1cc2c(=O)n(CC3(O)CCN(C(=O)C4CC4)CC3)cnn2c1 [Compound I-105, N-(3-((1-(cyclopropanecarbonyl)-4-hydroxypiperidin-4-yl)methyl)-4-oxo-3,4-dihydropyrrolo[2,1-f][1,2,4]triazin-6-yl)-2-(3,4-dichlorophenoxy)acetamide] | > 10 |
| CN(C)C(=O)c1ccc(-c2ccc(C(=O)N3CCC(O)(Cn4cnn5cccc5c4=O)CC3)c(Cl)c2)cc1 [Compound I-78, 3′-chloro-4′-(4-hydroxy-4-((4-oxopyrrolo[2,1-f][1,2,4]triazin-3(4H)-yl)methyl)piperidine-1-carbonyl)-N,N-dimethyl-[1,1′-biphenyl]-4-carboxamide] | > 10 |
| CC(CC(=O)N1CCC(O)(Cn2cnn3cccc3c2=O)CC1)c1ccccc1 (centres unmarked) [Compound I-1, 3-((4-hydroxy-1-(3-phenylbutanoyl)piperidin-4-yl)methyl)pyrrolo[2,1-f][1,2,4]triazin-4(3H)-one] | 0.2 to 1 |
| O=C(c1cccc(-c2ccc3scnc3c2)c1)N1CCC(O)(Cn2cnn3cccc3c2=O)CC1 [Compound I-23, 3-((1-(3-(benzo[d]thiazol-5-yl)benzoyl)-4-hydroxypiperidin-4-yl)methyl)pyrrolo[2,1-f][1,2,4]triazin-4(3H)-one] | 1 to 10 |
| O=C(c1ccc(Oc2ccccc2)cc1)N1CCC(O)(Cn2cnn3cccc3c2=O)CC1 [Compound I-80, 3-((4-hydroxy-1-(4-phenoxybenzoyl)piperidin-4-yl)methyl)pyrrolo[2,1-f][1,2,4]triazin-4(3H)-one] | > 10 |
| Cc1cccc(NC(=O)Nc2cc3c(=O)n(CC4(O)CCN(C(=O)C5CC5)CC4)cnn3c2)c1 [Compound I-86, 1-(3-((1-(cyclopropanecarbonyl)-4-hydroxypiperidin-4-yl)methyl)-4-oxo-3,4-dihydropyrrolo[2,1-f][1,2,4]triazin-6-yl)-3-(m-tolyl)urea] | > 10 |
